From patent US12691182B2, “Maytansinoid derivatives, conjugates thereof, and methods of use” (priority 2016, dated 2026)
pIC50: −log10 of the molar value.

Experiments:
Format in all cases: cell-based
[1] = system: Ovcar3 (Muc16+) cells; assay: In vitro cytotoxicity assay, Ovcar3 cells (CCK8 viability); conditions: naked payload, 3 days; for Ovcar3 % kill: % kill reported for the highest dose; for pIC50: CCK8
Procedure: (§1) In this Example, the ability of various antibody-drug conjugates and naked payloads to kill antigen-expressing tumor cells in vitro was assessed.
(§2) Ovcar3 (Muc16+) cells were seeded in 96 well plates at 3000 cells per well in complete growth media and grown overnight. For cell viability curves, serially diluted conjugates or naked payloads were added to the cells at final concentrations ranging from 100 nM to 5 pM and incubated for 3 days. To measure viability, cells were incubated with CCK8 (Dojindo) for the final 2 hours and the absorbance at 450 nm (OD450) was determined on a Victor (Perkin Elmer). Background OD450 levels determined from digitonin (40 nM) treated cells were subtracted from all wells and viability is expressed as a percentage of the untreated controls. IC50 values were determined from a four-parameter logistic equation over a 10-point response curve (GraphPad Prism). […] All curves and IC50 values are corrected for payload equivalents. The plot of % Cell Viability vs. Log 10 [M]
(§3) All IC50s are expressed in nM concentration and % kill is reported for the highest dose. All curves and IC50 values are corrected for payload equivalents. The plot of % Cell Viability vs. Log 10 [M]

[2] = system: C4-2 (STEAP2+) cells; assay: In vitro cytotoxicity assay, C4-2 cells (CellTiter-Glo viability); conditions: naked payload, 5 days; for C4-2 % kill: % kill reported for the highest dose; for pIC50: CellTiter-Glo
Procedure: as §1
C4-2 (STEAP2+) cells were seeded in 96 well plates at 4000 cells per well in complete growth media and grown overnight. For cell viability curves, serially diluted conjugates or naked payloads were added to the cells at final concentrations ranging from 100 nM to 5 pM and incubated for 5 days. To measure viability, cells were incubated with CellTiter-Glo reagents for 5 minutes and luminescence was determined on a Victor plate reader (PerkinElmer). IC50 values were determined from a four-parameter logistic equation over a 10-point response curve (GraphPad Prism).
as §3

[3] = system: SKBR3 (Her2+) cells; assay: In vitro cytotoxicity assay, SKBR3 cells (CCK8 viability); conditions: naked payload, SKBr-3 cells, 3 days; for SKBr-3 % kill: % kill reported for the highest dose; for pIC50: CCK8
Procedure: as §1
as §2, with “SKBR3 (Her2+)” for “Ovcar3 (Muc16+)”, “8000” for “3000”
as §3

| Compound | Ovcar3 % kill [1] | pIC50 [1] | C4-2 % kill [2] | pIC50 [2] | SKBr-3 % kill [3] | pIC50 [3] |
| --- | --- | --- | --- | --- | --- | --- |
| COc1cc2cc(c1Cl)N(C)C(=O)C[C@H](OC(=O)Nc1ccc(N)cc1C)[C@]1(C)O[C@H]1[C@H](C)[C@@H]1C[C@@](O)(NC(=O)O1)[C@H](OC)/C=C/C=C(\C)C2 [Compound 30c, Maytan-3-O-carbamoyl-N-(2-methyl-4-amino)benzene] | ** (** indicates % kill greater than, or equal to, 85 and less than 90) | 8.00 to 9.00 | ** (** indicates % kill greater than, or equal to, 85 and less than 90) | ≤ 8.00 | *** (*** indicates % kill greater than, or equal to, 90 and less than 95) | 8.00 to 9.00 |
| COc1cc2cc(c1Cl)N(C)C(=O)CC(OC(=O)Nc1ccc(N)cc1)C1(C)OC1C(C)C1CC(O)(NC(=O)O1)C(OC)C=CC=C(C)C2 (stereo not drawn) [Compound 8, Maytan-3-O-carbamoyl-N-(4-aminobenzene)] | ** (** indicates % kill greater than, or equal to, 85 and less than 90) | 8.00 to 9.00 | **** (**** indicates % kill greater than, or equal to, 95 and less than 99) | ≤ 8.00 | **** (**** indicates % kill greater than, or equal to, 95 and less than 99) | 8.00 to 9.00 |
| COc1cc2cc(c1Cl)N(C)C(=O)C[C@H](OC(=O)Nc1ccc(F)cc1N)[C@]1(C)O[C@H]1[C@H](C)[C@@H]1C[C@@](O)(NC(=O)O1)[C@H](OC)/C=C/C=C(\C)C2 [Compound 30g, Maytan-3-O-carbamoyl-N-(4-fluoro-2-amino)benzene] |  |  | ***** (***** indicates % kill greater than, or equal to, 99) | 8.00 to 9.00 | ***** (***** indicates % kill greater than, or equal to, 99) | 9.00 to 10.00 |
| COc1cc2cc(c1Cl)N(C)C(=O)CC(OC(=O)Nc1ccc(Cl)cc1N)C1(C)OC1C(C)C1CC(O)(NC(=O)O1)C(OC)C=CC=C(C)C2 (stereo not drawn) [Compound 30b, Maytan-3-O-carbamoyl-N-(4-chloro-2-amino)benzene] |  |  | * (* indicates % kill less than 85) | ≤ 8.00 | **** (**** indicates % kill greater than, or equal to, 95 and less than 99) | 9.00 to 10.00 |
| COc1cc2cc(c1Cl)N(C)C(=O)CC(OC(=O)Nc1ccc(N)c(C(F)(F)F)c1)C1(C)OC1C(C)C1CC(O)(NC(=O)O1)C(OC)C=CC=C(C)C2 (stereo not drawn) [Compound 30l, Maytan-3-O-carbamoyl-N-(3-trifluoromethyl-4-amino)benzene] | *** (*** indicates % kill greater than, or equal to, 90 and less than 95) | 9.00 to 10.00 |  | ≤ 8.00 | ***** (***** indicates % kill greater than, or equal to, 99) | 9.00 to 10.00 |
| COc1cc2cc(c1Cl)N(C)C(=O)C[C@H](OC(=O)Nc1cc(N3CCCC3)c(N)cc1C)[C@]1(C)O[C@H]1[C@H](C)[C@@H]1C[C@@](O)(NC(=O)O1)[C@H](OC)/C=C/C=C(\C)C2 [Compound 30q, Maytan-3-O-carbamoyl-N-(4-amino-2-methyl-5-pyrrolidin-1-yl)benzene] |  |  | *** (*** indicates % kill greater than, or equal to, 90 and less than 95) | ≤ 8.00 | ***** (***** indicates % kill greater than, or equal to, 99) | 8.00 to 9.00 |
| COc1cc2cc(c1Cl)N(C)C(=O)CC(OC(=O)Nc1ccc(N)c(Cl)c1)C1(C)OC1C(C)C1CC(O)(NC(=O)O1)C(OC)C=CC=C(C)C2 (stereo not drawn) [Compound 30a, Maytan-3-O-carbamoyl-N-(3-chloro-4-amino)benzene] | *** (*** indicates % kill greater than, or equal to, 90 and less than 95) | 9.00 to 10.00 | ***** (***** indicates % kill greater than, or equal to, 99) | 8.00 to 9.00 | **** (**** indicates % kill greater than, or equal to, 95 and less than 99) | 9.00 to 10.00 |
| Maytan-3-O-carbamoyl-N-(4-trifluoromethoxy-2-amino)benzene [Compound 30n] |  |  | ***** (***** indicates % kill greater than, or equal to, 99) | ≤ 8.00 | ***** (***** indicates % kill greater than, or equal to, 99) | 8.00 to 9.00 |
| COc1cc2cc(c1Cl)N(C)C(=O)CC(OC(=O)Nc1c(C)cccc1N)C1(C)OC1C(C)C1CC(O)(NC(=O)O1)C(OC)C=CC=C(C)C2 (stereo not drawn) [Compound 30f, Maytan-3-O-carbamoyl-N-(6-methyl-2-amino)benzene] |  |  | **** (**** indicates % kill greater than, or equal to, 95 and less than 99) | 8.00 to 9.00 | ***** (***** indicates % kill greater than, or equal to, 99) | 9.00 to 10.00 |
| COc1cc2cc(c1Cl)N(C)C(=O)CC(OC(=O)Nc1ccc(N)cc1Cl)C1(C)OC1C(C)C1CC(O)(NC(=O)O1)C(OC)C=CC=C(C)C2 (stereo not drawn) [Compound 17, Maytan-3-O-carbamoyl-N-(2-chloro-4-amino)benzene] | *** (*** indicates % kill greater than, or equal to, 90 and less than 95) | 11.00 to 12.00 | **** (**** indicates % kill greater than, or equal to, 95 and less than 99) | 9.00 to 10.00 | ***** (***** indicates % kill greater than, or equal to, 99) | 10.00 to 11.00 |
| Maytan-3-O-carbamoyl-N-(2-methyl-3-amino)benzene [Compound 30d] |  |  | **** (**** indicates % kill greater than, or equal to, 95 and less than 99) | 8.00 to 9.00 | **** (**** indicates % kill greater than, or equal to, 95 and less than 99) | 8.00 to 9.00 |
| COc1cc2cc(c1Cl)N(C)C(=O)C[C@H](OC(=O)Nc1ccc(N)cc1Br)[C@]1(C)O[C@H]1[C@H](C)[C@@H]1C[C@@](O)(NC(=O)O1)[C@H](OC)/C=C/C=C(\C)C2 [Compound 30m, Maytan-3-O-carbamoyl-N-(2-bromo-4-amino)benzene] | ** (** indicates % kill greater than, or equal to, 85 and less than 90) | 11.00 to 12.00 | ***** (***** indicates % kill greater than, or equal to, 99) | 10.00 to 11.00 | ***** (***** indicates % kill greater than, or equal to, 99) | 10.00 to 11.00 |
| COc1cc2cc(c1Cl)N(C)C(=O)C[C@H](OC(=O)Nc1cc(N3CCOCC3)c(N)cc1C)[C@]1(C)O[C@H]1[C@H](C)[C@@H]1C[C@@](O)(NC(=O)O1)[C@H](OC)/C=C/C=C(\C)C2 [Compound 30p, Maytan-3-O-carbamoyl-N-(4-amino-2-methyl-5-morpholin-4-yl)benzene] |  |  |  | ≤ 8.00 | * (* indicates % kill less than 85) | ≤ 8.00 |
| COc1ccc(NC(=O)O[C@H]2CC(=O)N(C)c3cc(cc(OC)c3Cl)C/C(C)=C/C=C/[C@@H](OC)[C@@]3(O)C[C@H](OC(=O)N3)[C@@H](C)[C@@H]3O[C@@]23C)c(N)c1 [Compound 30i, Maytan-3-O-carbamoyl-N-(4-methoxy-2-amino)benzene] |  |  | ***** (***** indicates % kill greater than, or equal to, 99) | ≤ 8.00 | ***** (***** indicates % kill greater than, or equal to, 99) | 8.00 to 9.00 |
| Maytan-3-O-carbamoyl-N-(6-methyl-3-amino)benzene [Compound 30e] |  |  | **** (**** indicates % kill greater than, or equal to, 95 and less than 99) | 8.00 to 9.00 | *** (*** indicates % kill greater than, or equal to, 90 and less than 95) | 8.00 to 9.00 |
| COc1cc2cc(c1Cl)N(C)C(=O)CC(OC(=O)Nc1cc(Cl)c(F)cc1N)C1(C)OC1C(C)C1CC(O)(NC(=O)O1)C(OC)C=CC=C(C)C2 (stereo not drawn) [Compound 30o, Maytan-3-O-carbamoyl-N-(4-fluoro-5-chloro-2-amino)benzene] |  |  | * (* indicates % kill less than 85) | ≤ 8.00 | ***** (***** indicates % kill greater than, or equal to, 99) | 9.00 to 10.00 |
| COc1cc2cc(c1Cl)N(C)C(=O)C[C@H](OC(=O)Nc1cc(N)ccc1F)[C@]1(C)O[C@H]1[C@H](C)[C@@H]1C[C@@](O)(NC(=O)O1)[C@H](OC)/C=C/C=C(\C)C2 [Compound 30h, Maytan-3-O-carbamoyl-N-(2-fluoro-5-amino)benzene] |  |  | * (* indicates % kill less than 85) | 8.00 to 9.00 | **** (**** indicates % kill greater than, or equal to, 95 and less than 99) | 9.00 to 10.00 |
